# Source: patent publication US20260356879A1, “CELASTROL DERIVATIVES” (Celloram Inc., priority 2022, published 2026)
# “Also recorded” adds a separate entry of the source.
# What was measured:
# [1] = system: NLRP3 inflammasome; assay: NLRP3 inflammasome assay in BMDCs: ASC complex formation (western blot); assay type: cell-based
# Description: FIG. 2A depicts western blot images showing the relative NLRP3 inflammasome activity of the compounds 22 (CLM-022) and 1 (CLM-001) by detecting the level of cellular ASC complex and the mature form of IL-1β (15 kDa) in a conditioned media of BMDCs treated with LPS (100 ng/ml) for 3 hours and then the compound at 50 nM, 100 nM, and 500 nM concentration for 30 min, followed by ATP or Nigericin. ASC monomer and β-Actin proteins were used as controls. FIG. 2B depict plots of results showing secreted IL-1β levels measured by ELISA using conditioned media of BMDC treated with the compound 22 or compound 1 at 63 nM, 125 nM, 250 nM, and 500 nM, under NLRP3 inflammasome activation induced either by LPS+ATP or LPS+Nigericin. FIG. 2C depict plots of results showing secreted TNF-α levels measured by ELISA using conditioned media of BMDC treated with the compound 22 or compound 1 at 63 nM, 125 nM, 250 nM, and 500 nM, under NLRP3 inflammasome activation induced either by LPS+ATP or LPS+Nigericin. […]
# (§1) 1. […] After 30 minutes Nigericin (10 μM) or ATP (5 mM) was added (Signal 2) and the level of NLRP3-dependent inflammasome activity was determined by western blotting the treated cells with ASC complex (>48 kDa). […]
# [2] = system: TNF-α secretion; assay: Secreted TNF-α in conditioned media of BMDC (ELISA), LPS+ATP or LPS+Nigericin; assay type: cell-based; settings: 63-500 nM, FIG. 2C
# Description: (§2) FIG. 2A depicts western blot images showing the relative NLRP3 inflammasome activity of the compounds 22 (CLM-022) and 1 (CLM-001) by detecting the level of cellular ASC complex and the mature form of IL-1β (15 kDa) in a conditioned media of BMDCs treated with LPS (100 ng/ml) for 3 hours and then the compound at 50 nM, 100 nM, and 500 nM concentration for 30 min, followed by ATP or Nigericin. ASC monomer and β-Actin proteins were used as controls. FIG. 2B depict plots of results showing secreted IL-1β levels measured by ELISA using conditioned media of BMDC treated with the compound 22 or compound 1 at 63 nM, 125 nM, 250 nM, and 500 nM, under NLRP3 inflammasome activation induced either by LPS+ATP or LPS+Nigericin. FIG. 2C depict plots of results showing secreted TNF-α levels measured by ELISA using conditioned media of BMDC treated with the compound 22 or compound 1 at 63 nM, 125 nM, 250 nM, and 500 nM, under NLRP3 inflammasome activation induced either by LPS+ATP or LPS+Nigericin.
# 3. The secreted form of TNF-α, a NLRP3 inflammasome independent cytokine, induced by LPS+ATP or LPS+Nigericin were measured by ELISA assay using the conditioned media of BMDC treated with compound 1 (CLM-1) or compound 22 (CLM-022) at concentrations of 63, 125, 250, 500 nM under NLRP3 inflammasome activation induced either by LPS+ATP or LPS+Nigericin.
# [3] = system: NLRP3 inflammasome; assay: Secreted IL-1β in conditioned media of BMDC (ELISA), LPS+ATP or LPS+Nigericin; assay type: cell-based; settings: 63-500 nM, FIG. 2B
# Description: as §2, §1
# [4] = system: LPS-induced acute inflammation; assay: LPS-induced septic shock mouse model, cytokine expression in serum (ELISA) and colonic mucosa (qPCR); assay type: in vivo
# Description: FIG. 4A, and FIG. 4B depict results showing that compound 22 (CLM-022) decreased the production of pro-inflammatory cytokines in the LPS-induced septic shock mouse model as described in Example 17. Compound 1 (CLM-001) and compound 22 (CLM-022) (1 mg/kg) injected intraperitoneally 1 hour prior to septic shock induction by administering sublethal dose of LPS (25 mg/kg, i.p.), mice were sacrificed 4 hours post LPS injection, and subjected to measurement of inflammatory cytokine expression. FIG. 4A depicts plot of data showing that the level of TNF-α decreased in the serum of compound 1 and compound 22 treated mice.
# This example illustrates a study of the inhibitory function of an exemplary celastrol derivative of the present disclosure (compound 22) against LPS-induced acute inflammation in vivo, we set up LPS-induced septic shock mouse model (Yu et al., 2017) and detected the expression levels of inflammatory cytokines in colon.
# Mice (n=3 per group) were administered intraperitoneally (i.p.) with control vehicle, compound 1 (1 mg/kg), or compound 22 (1 mg/kg). After 1 hour, mice were administered by i.p. injection a sublethal dose of LPS (25 mg/kg). Four hours later, the mice were subjected to blood collection and harvesting colonic mucosa by scraping colon. Cytokine expression was measured by conducting ELISA (Cat #900-T54, PeproTech) for TNF-α on blood serum samples and qPCR for the cytokines, IL-1 (TaqMan, Mm00434228), IL-6 (TaqMan, Mm00446190), TNF-α (TaqMan, 00443258), iNOS (TaqMan, 00440502), on colonic mucosa samples.
smiles,measurement,setting,value
"CC1=C(O)C(=O)C=C2C1=CC=C1[C@@]2(C)CC[C@@]2(C)[C@@H]3C[C@](C)(N(C)C(=O)C(=O)N(C)C)CC[C@]3(C)CC[C@]12C [Compound 22, N′-[(2R,4aS,6aR,6aS,14aS,14bR)-10-hydroxy-2,4a,6a,6a,9,14a-hexamethyl-11-oxo-1,3,4,5,6,13,14,14b-octahydropicen-2-yl]-N,N,N′-trimethyl-oxamide]",ASC complex formation,"[1]; BMDCs, 50, 100, 500 nM, LPS then ATP or Nigericin, FIG. 2A",suppressed ASC complex formation more strongly than compound 1
same,NLRP3 inflammasome activity,"[1]; BMDCs, compared with compound 1",robust inhibitory function on NLRP3 inflammasome activity that was better than that observed for the parental molecule celastrol (compound 1)
same,suppression of TNF-α secretion,[2],no significant suppressive effect on TNF-α inflammatory cytokine secretion
same,inhibition of IL-1β secretion,[3],more strongly inhibited IL-1β secretion induced by both LPS+ATP and LPS+Nigericin; also recorded: strongly inhibited IL-1β secretion via suppression of NLRP3 inflammasome
same,level of TNF-α in serum,"[4]; 1 mg/kg i.p. 1 hour before LPS (25 mg/kg, i.p.), 4 hours post LPS, ELISA, FIG. 4A",decreased
same,"gene expression of IL-1β, IL-6, TNF-α, and iNOS in the colon","[4]; 1 mg/kg i.p. 1 hour before LPS (25 mg/kg, i.p.), 4 hours post LPS, qPCR, FIG. 4B",markedly inhibited
same,"inhibition of LPS-induced acute inflammation responses (IL-1, IL-6, TNF-α, iNOS in blood serum and colon mucosa)","[4]; 1 mg/kg i.p., LPS 25 mg/kg i.p., FIGS. 4A and 4B","efficiently suppressed expression of an inflammatory mediator and the inflammatory cytokines including IL-1, IL-6, TNF-α, and INOS in the blood serum and colon mucosa to levels comparable to or lower than the levels observed in the group administered celastrol (Compound 1)"
